According to patent publication US20200254050A1, “STABLE COMPOSITIONS OF NEUROACTIVE PEPTIDES” (Naurex Inc., priority 2014, published 2020):
Residues, ends and D or L forms follow the SMILES beside them.

Test: pH stability study of GLYX-13 150 mg/mL HCl formulations (40° C., 3 weeks), HPLC assay and related substances
Type: physicochemical
Protocol: Column: Waters Spherisorb ODS2, 3 μm, 4.6×250 mm, Part # PSS832115
Mobile phase A: 2.2 g/L heptanesulfonic acid, 6.7 g/L potassium dihydrogen phosphate, pH 2.5
Mobile phase B: 70/30 Methanol/Water
Column temperature: 40±1° C.
Sample temperature: 4±1° C.
Four formulations were prepared to examine dissolution of the drug based (Table 2). Each formulation was prepared at 35 mL and contained 5.25 g of GLYX-13.
Each formulation was prepared by adding the drug to a beaker and adjusting the volume to approximately 26 mL using purified water. The pH was adjusted using 5 M HCl that was added in small increments. The solution was mixed for 10 minutes after each adjustment and mixed for 30 minutes after reaching the desired pH. The pH of the solution was checked after 30 minutes and adjusted if needed. The solution was adjusted to 35 mL using purified water when a drift in pH was no longer observed. Each formulation was filled into vials (2.5 mL/vial), sealed with a stopper, and capped. The formulations were stored at 40° C. for 3 weeks and samples were removed weekly. All weekly samples were examined for appearance, tested for pH, assay and related substances using the HPLC assay.
Data were analyzed using the appropriate software designed for the assay and impurities HPLC method. Impurity 1 (RRT 0.43) is cyclo-proline-threonine (“diketopiperazine”). Impurity 2 (RRT 0.57) is proline-threonine amide. […]

CC(O)C(N)C(=O)N1CCCC1C(=O)N1CCCC1C(=O)NC(C(N)=O)C(C)O (stereo not shown) [GLYX-13] (H-TPPT-NH2; configuration not given here)
rate of impurity formation at pH 7, fold greater than the rate at pH 4: approximately 6 fold
